# From PubChem BioAssay (NCI)
#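 Following 48 hours of exposure in 96-well plates, responses at five concentrations were used to interpolate endpoints linearly. GI50 marks 50% less growth. TGI denotes the concentration required for complete inhibition of growth.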
# Tests used:
# Test in all cases: inhibition of tumour cell growth, NCI panel, 48 h
# HT29 colon = tested on: HT29 colon
# NCI/ADR-RES ovarian = tested on: NCI/ADR-RES ovarian
# IGROV1 ovarian = tested on: IGROV1 ovarian
# COLO 205 colon = tested on: COLO 205 colon
# MDA-MB-435 = tested on: MDA-MB-435
# HCT-116 colon = tested on: HCT-116 colon
# CAKI-1 renal = tested on: CAKI-1 renal
# SNB-19 CNS = tested on: SNB-19 CNS
# LOX IMVI melanoma = tested on: LOX IMVI melanoma
# T-47D breast = tested on: T-47D breast
# CCRF-CEM leukemia = tested on: CCRF-CEM leukemia
# K-562 leukemia = tested on: K-562 leukemia
# NCI-H226 lung = tested on: NCI-H226 lung
# U251 CNS = tested on: U251 CNS
# UO-31 renal = tested on: UO-31 renal
# HCC-2998 colon = tested on: HCC-2998 colon
# OVCAR-5 ovarian = tested on: OVCAR-5 ovarian
# OVCAR-8 ovarian = tested on: OVCAR-8 ovarian
# M14 melanoma = tested on: M14 melanoma
# SF-268 CNS = tested on: SF-268 CNS
# RPMI-8226 leukemia = tested on: RPMI-8226 leukemia
# SR leukemia = tested on: SR leukemia
# PC-3 prostate = tested on: PC-3 prostate
# SF-539 CNS = tested on: SF-539 CNS
# BT-549 breast = tested on: BT-549 breast
# NCI-H460 lung = tested on: NCI-H460 lung
# A498 renal = tested on: A498 renal
# MALME-3M melanoma = tested on: MALME-3M melanoma
# UACC-257 melanoma = tested on: UACC-257 melanoma
# TK-10 renal = tested on: TK-10 renal
# ACHN renal = tested on: ACHN renal
# MDA-MB-231 breast = tested on: MDA-MB-231 breast
# HOP-92 NSCLC = tested on: HOP-92 NSCLC
# HCT-15 colon = tested on: HCT-15 colon
# A549 NSCLC = tested on: A549 NSCLC
# NCI-H23 lung = tested on: NCI-H23 lung
# SW-620 colon = tested on: SW-620 colon
# SNB-75 CNS = tested on: SNB-75 CNS
# DU-145 prostate = tested on: DU-145 prostate
# SK-MEL-28 melanoma = tested on: SK-MEL-28 melanoma
# NCI-H522 lung = tested on: NCI-H522 lung
# MOLT-4 leukemia = tested on: MOLT-4 leukemia
# MCF7 breast = tested on: MCF7 breast
# HS 578T breast = tested on: HS 578T breast
# SF-295 CNS = tested on: SF-295 CNS
# OVCAR-4 ovarian = tested on: OVCAR-4 ovarian
# OVCAR-3 ovarian = tested on: OVCAR-3 ovarian
# HOP-62 NSCLC = tested on: HOP-62 NSCLC
# UACC-62 melanoma = tested on: UACC-62 melanoma
# SN12C renal = tested on: SN12C renal
# RXF 393 renal = tested on: RXF 393 renal
# SK-MEL-2 melanoma = tested on: SK-MEL-2 melanoma
# SK-MEL-5 melanoma = tested on: SK-MEL-5 melanoma
# SK-OV-3 ovarian = tested on: SK-OV-3 ovarian
# KM12 colon = tested on: KM12 colon
# HL-60(TB) leukemia = tested on: HL-60(TB) leukemia
# 786-0 renal = tested on: 786-0 renal
compound,measurement,setting,value
c1cc(N[C@@H]2CCNC2)nc(-c2cnc3ccc(-c4cn[nH]c4)cn23)c1,GI50,HT29 colon,12.1 µM
same,TGI,HT29 colon,> 96.8 µM
same,GI50,NCI/ADR-RES ovarian,> 100 µM
same,TGI,NCI/ADR-RES ovarian,> 100 µM
same,GI50,IGROV1 ovarian,5.46 µM
same,TGI,IGROV1 ovarian,17.6 µM
same,GI50,COLO 205 colon,3.46 µM
same,TGI,COLO 205 colon,9.85 µM
same,GI50,MDA-MB-435,11.2 µM
same,TGI,MDA-MB-435,26.7 µM
same,GI50,HCT-116 colon,3.43 µM
same,TGI,HCT-116 colon,> 100 µM
same,GI50,CAKI-1 renal,> 47.9 µM
same,TGI,CAKI-1 renal,> 100 µM
same,GI50,SNB-19 CNS,4.26 µM
same,TGI,SNB-19 CNS,34.9 µM
same,GI50,LOX IMVI melanoma,3.24 µM
same,TGI,LOX IMVI melanoma,15.1 µM
same,GI50,T-47D breast,2.04 µM
same,TGI,T-47D breast,9.3 µM
same,GI50,CCRF-CEM leukemia,3.26 µM
same,TGI,CCRF-CEM leukemia,14.4 µM
same,GI50,K-562 leukemia,3.63 µM
same,TGI,K-562 leukemia,> 55.6 µM
same,GI50,NCI-H226 lung,4.13 µM
same,TGI,NCI-H226 lung,> 100 µM
same,GI50,U251 CNS,3.11 µM
same,TGI,U251 CNS,18.3 µM
same,GI50,UO-31 renal,> 69.3 µM
same,TGI,UO-31 renal,> 100 µM
same,GI50,HCC-2998 colon,9.95 µM
same,TGI,HCC-2998 colon,35.5 µM
same,GI50,OVCAR-5 ovarian,6.06 µM
same,TGI,OVCAR-5 ovarian,> 95.4 µM
same,GI50,OVCAR-8 ovarian,6.47 µM
same,TGI,OVCAR-8 ovarian,> 92.8 µM
same,GI50,M14 melanoma,13.7 µM
same,TGI,M14 melanoma,44.9 µM
same,GI50,SF-268 CNS,2.18 µM
same,TGI,SF-268 CNS,7.1 µM
same,GI50,RPMI-8226 leukemia,11 µM
same,TGI,RPMI-8226 leukemia,43.9 µM
same,GI50,SR leukemia,2.37 µM
same,TGI,SR leukemia,10.1 µM
same,GI50,PC-3 prostate,4.99 µM
same,TGI,PC-3 prostate,47.8 µM
same,GI50,SF-539 CNS,1.61 µM
same,TGI,SF-539 CNS,8.17 µM
same,GI50,BT-549 breast,3.06 µM
same,TGI,BT-549 breast,8.32 µM
same,GI50,NCI-H460 lung,16.7 µM
same,TGI,NCI-H460 lung,80.3 µM
same,GI50,A498 renal,7.01 µM
same,TGI,A498 renal,29 µM
same,GI50,MALME-3M melanoma,6.98 µM
same,TGI,MALME-3M melanoma,26.9 µM
same,GI50,UACC-257 melanoma,16.1 µM
same,TGI,UACC-257 melanoma,53.3 µM
same,GI50,TK-10 renal,15.3 µM
same,TGI,TK-10 renal,62.8 µM
same,GI50,ACHN renal,19.2 µM
same,TGI,ACHN renal,> 100 µM
same,GI50,MDA-MB-231 breast,3.56 µM
same,TGI,MDA-MB-231 breast,36.1 µM
same,GI50,HOP-92 NSCLC,1.38 µM
same,TGI,HOP-92 NSCLC,4.51 µM
same,GI50,HCT-15 colon,> 100 µM
same,TGI,HCT-15 colon,> 100 µM
same,GI50,A549 NSCLC,22.8 µM
same,TGI,A549 NSCLC,> 100 µM
same,GI50,NCI-H23 lung,5.07 µM
same,TGI,NCI-H23 lung,35.9 µM
same,GI50,SW-620 colon,6.83 µM
same,TGI,SW-620 colon,52.1 µM
same,GI50,SNB-75 CNS,1.88 µM
same,TGI,SNB-75 CNS,5.77 µM
same,GI50,DU-145 prostate,9.09 µM
same,TGI,DU-145 prostate,> 100 µM
same,GI50,SK-MEL-28 melanoma,4.35 µM
same,TGI,SK-MEL-28 melanoma,16.9 µM
same,GI50,NCI-H522 lung,0.916 µM
same,TGI,NCI-H522 lung,3.55 µM
same,GI50,MOLT-4 leukemia,4.39 µM
same,TGI,MOLT-4 leukemia,51.6 µM
same,GI50,MCF7 breast,3.31 µM
same,TGI,MCF7 breast,20.4 µM
same,GI50,HS 578T breast,1.69 µM
same,TGI,HS 578T breast,5.54 µM
same,GI50,SF-295 CNS,12 µM
same,TGI,SF-295 CNS,> 55 µM
same,GI50,OVCAR-4 ovarian,2.84 µM
same,TGI,OVCAR-4 ovarian,9.92 µM
same,GI50,OVCAR-3 ovarian,2.92 µM
same,TGI,OVCAR-3 ovarian,24.8 µM
same,GI50,HOP-62 NSCLC,6.23 µM
same,TGI,HOP-62 NSCLC,29.6 µM
same,GI50,UACC-62 melanoma,5.02 µM
same,TGI,UACC-62 melanoma,20.3 µM
same,GI50,SN12C renal,0.795 µM
same,TGI,SN12C renal,13.4 µM
same,GI50,RXF 393 renal,2.56 µM
same,TGI,RXF 393 renal,11.7 µM
same,GI50,SK-MEL-2 melanoma,2.55 µM
same,TGI,SK-MEL-2 melanoma,6.82 µM
same,GI50,SK-MEL-5 melanoma,14.1 µM
same,TGI,SK-MEL-5 melanoma,39.4 µM
same,GI50,SK-OV-3 ovarian,7.8 µM
same,TGI,SK-OV-3 ovarian,68.6 µM
same,GI50,KM12 colon,0.868 µM
same,TGI,KM12 colon,51.4 µM
same,GI50,HL-60(TB) leukemia,22.1 µM
same,TGI,HL-60(TB) leukemia,66.6 µM
same,GI50,786-0 renal,10.6 µM
same,TGI,786-0 renal,> 83.1 µM
